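Compound exposure: 48 hours, 5 concentrations, 96-well plates. Here, GI50 denotes the concentration required for 50% inhibition of growth.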 Calls of active or inactive are those of the source. Rule as the data show it: active = GI50 up to about 1.1 µM and inactive = higher.
Columns and labels:
Assay in all cases: NCI tumour cell line growth inhibition, 48 h
NCI-H23 = test system: NCI-H23
U-251 = test system: U-251
HT-29 = test system: HT-29
M14 = test system: M14
UACC-257 = test system: UACC-257
SR = test system: SR
K562 = test system: K562
786-0 = test system: 786-0
NCI-H460 = test system: NCI-H460
SK-OV-3 = test system: SK-OV-3
SF-268 = test system: SF-268
A549 = test system: A549
EKVX = test system: EKVX
SNB-19 = test system: SNB-19
MDA-MB-435 = test system: MDA-MB-435
NCI/ADR-RES = test system: NCI/ADR-RES
PC-3 = test system: PC-3
ACHN = test system: ACHN
HOP-92 = test system: HOP-92
MDA-N = test system: MDA-N

Row | Structure (SMILES) | GI50 (NCI-H23) | GI50 (U-251) | GI50 (HT-29) | GI50 (M14) | GI50 (UACC-257) | GI50 (SR) | GI50 (K562) | GI50 (786-0) | GI50 (NCI-H460) | GI50 (SK-OV-3) | GI50 (SF-268) | GI50 (A549) | GI50 (EKVX) | GI50 (SNB-19) | GI50 (MDA-MB-435) | GI50 (NCI/ADR-RES) | GI50 (PC-3) | GI50 (ACHN) | GI50 (HOP-92) | GI50 (MDA-N)
1 | OC1(c2ccccc2)C2CCN(CC2)C1CN1CCOCC1 (stereo not drawn) | > 100 µM (inactive) | > 100 µM (inactive) | > 100 µM (inactive) | > 100 µM (inactive) | > 100 µM (inactive) | > 100 µM (inactive) | > 100 µM (inactive) | > 100 µM (inactive) | > 100 µM (inactive) | > 100 µM (inactive) | > 100 µM (inactive) | > 100 µM (inactive) | > 100 µM (inactive) | > 100 µM (inactive) | > 100 µM (inactive) | > 100 µM (inactive) | > 100 µM (inactive) | > 100 µM (inactive) | – | –
2 | Nc1ncc(CN2CCCC2)c(-c2ccccc2O)n1 | > 750 µM (inactive) | > 750 µM (inactive) | > 750 µM (inactive) | > 750 µM (inactive) | > 750 µM (inactive) | > 750 µM (inactive) | 4.51 µM (inactive) | > 750 µM (inactive) | > 750 µM (inactive) | > 750 µM (inactive) | > 750 µM (inactive) | > 750 µM (inactive) | > 100 µM (inactive) | > 750 µM (inactive) | – | > 100 µM (inactive) | – | > 750 µM (inactive) | > 750 µM (inactive) | –
3 | CSC1=C(C(=O)Nc2ccc(Cl)cc2)C(N)=NC1=O | > 100 µM (inactive) | > 100 µM (inactive) | > 100 µM (inactive) | > 100 µM (inactive) | > 100 µM (inactive) | 37.8 µM (inactive) | > 100 µM (inactive) | > 100 µM (inactive) | > 100 µM (inactive) | > 100 µM (inactive) | > 100 µM (inactive) | > 100 µM (inactive) | > 100 µM (inactive) | > 100 µM (inactive) | > 100 µM (inactive) | > 100 µM (inactive) | > 100 µM (inactive) | – | – | –
4 | CN1c2ccccc2C(=O)NC12CCN(CC1COc3ccccc3O1)CC2 (stereo not drawn) | 45.8 µM (inactive) | 40.2 µM (inactive) | 31.9 µM (inactive) | 27.8 µM (inactive) | 22 µM (inactive) | 23.8 µM (inactive) | 31.3 µM (inactive) | 69.7 µM (inactive) | 21.3 µM (inactive) | > 100 µM (inactive) | > 100 µM (inactive) | 50.6 µM (inactive) | 51.6 µM (inactive) | 31.3 µM (inactive) | 33.4 µM (inactive) | 31.6 µM (inactive) | – | 19.6 µM (inactive) | 14 µM (inactive) | –
5 | Cc1cc(-c2c(F)cc3c4nn([C@H]5CC[C@@H](N(C)C)CC5)c(=O)c-4cn(C4CC4)c3c2F)cc(C)n1 | 0.132 µM (active) | 0.105 µM (active) | 0.245 µM (active) | 0.46 µM (active) | 1.25 µM (inactive) | 0.0735 µM (active) | 0.0297 µM (active) | 0.133 µM (active) | < 0.0224 µM (active) | 0.183 µM (active) | 0.119 µM (active) | 0.161 µM (active) | 2.06 µM (inactive) | 0.309 µM (active) | – | – | 1.56 µM (inactive) | 0.214 µM (active) | 0.0453 µM (active) | 1.56 µM (inactive)
6 | CCCCC(C(=O)CCC(=O)Nc1ccc(Cl)c(Cl)c1)C(=O)C(C)C (stereo not drawn) | > 100 µM (inactive) | > 100 µM (inactive) | > 100 µM (inactive) | 82.8 µM (inactive) | > 100 µM (inactive) | > 100 µM (inactive) | 40.9 µM (inactive) | > 100 µM (inactive) | > 100 µM (inactive) | > 100 µM (inactive) | > 100 µM (inactive) | > 100 µM (inactive) | > 100 µM (inactive) | > 100 µM (inactive) | – | – | – | 31.2 µM (inactive) | > 100 µM (inactive) | –
7 | O=S(=O)(Oc1ccc2oc3ccccc3c2c1-c1c(OS(=O)(=O)C(F)(F)F)ccc2oc3ccccc3c12)C(F)(F)F | > 100 µM (inactive) | > 100 µM (inactive) | > 100 µM (inactive) | > 100 µM (inactive) | > 100 µM (inactive) | > 100 µM (inactive) | > 100 µM (inactive) | > 100 µM (inactive) | > 100 µM (inactive) | > 100 µM (inactive) | > 100 µM (inactive) | > 100 µM (inactive) | > 100 µM (inactive) | > 100 µM (inactive) | > 100 µM (inactive) | > 100 µM (inactive) | > 100 µM (inactive) | > 100 µM (inactive) | > 100 µM (inactive) | –
8 | CC(C)C12C=CC(C)(CC1)n1c(=O)c3cc4ccccc4cc3c(=O)n12 (stereo not drawn) | 52 µM (inactive) | 76 µM (inactive) | 45.1 µM (inactive) | 76.4 µM (inactive) | 63.1 µM (inactive) | 33.5 µM (inactive) | 34.4 µM (inactive) | 55.3 µM (inactive) | 45.5 µM (inactive) | 52.1 µM (inactive) | 67.3 µM (inactive) | 45.4 µM (inactive) | 43.5 µM (inactive) | 40.5 µM (inactive) | – | – | – | 36.4 µM (inactive) | 38.5 µM (inactive) | –
9 | CC(C)=C1C(=O)C[C@]2(C)C/C=C(\C)CC/C=C(\C)CC[C@@H]12 | 10.2 µM (inactive) | 7.62 µM (inactive) | 9.08 µM (inactive) | 7.87 µM (inactive) | 11.1 µM (inactive) | 9.86 µM (inactive) | 6.65 µM (inactive) | 8.69 µM (inactive) | – | 18.9 µM (inactive) | 8.93 µM (inactive) | 14.1 µM (inactive) | 11.2 µM (inactive) | > 50 µM (inactive) | 9.53 µM (inactive) | 7.36 µM (inactive) | 11.8 µM (inactive) | 9.02 µM (inactive) | 9.53 µM (inactive) | –
10 | O=C(NC12CC3CC(CC(C3)C1)C2)C(=O)c1c[nH]c2ccc([N+](=O)[O-])cc12 | 38.7 µM (inactive) | 10.9 µM (inactive) | > 44.4 µM (inactive) | 34 µM (inactive) | 85.5 µM (inactive) | 14 µM (inactive) | 49 µM (inactive) | 16.9 µM (inactive) | 13.5 µM (inactive) | 76.6 µM (inactive) | 9.48 µM (inactive) | 11.3 µM (inactive) | 97.3 µM (inactive) | > 20.1 µM (inactive) | – | – | – | 90.4 µM (inactive) | 30.3 µM (inactive) | –
11 | O=C(O)CNC(=O)c1c2ccccc2nc2ccccc12 | > 100 µM (inactive) | > 100 µM (inactive) | > 100 µM (inactive) | > 100 µM (inactive) | > 100 µM (inactive) | > 100 µM (inactive) | > 100 µM (inactive) | > 100 µM (inactive) | > 100 µM (inactive) | > 100 µM (inactive) | > 100 µM (inactive) | > 100 µM (inactive) | > 100 µM (inactive) | > 100 µM (inactive) | > 100 µM (inactive) | > 100 µM (inactive) | > 100 µM (inactive) | > 100 µM (inactive) | > 100 µM (inactive) | –
12 | O=[N+]([O-])c1nccn1COCCBr | > 100 µM (inactive) | > 100 µM (inactive) | > 100 µM (inactive) | > 100 µM (inactive) | > 100 µM (inactive) | > 100 µM (inactive) | > 100 µM (inactive) | > 100 µM (inactive) | > 100 µM (inactive) | > 100 µM (inactive) | > 100 µM (inactive) | > 100 µM (inactive) | > 100 µM (inactive) | > 100 µM (inactive) | – | – | – | > 100 µM (inactive) | > 100 µM (inactive) | –
13 | O=C1C(Br)=C(C2=CC(=P(c3ccccc3)(c3ccccc3)c3ccccc3)C=C2)C(=O)C(Br)=C1C1=CC(=P(c2ccccc2)(c2ccccc2)c2ccccc2)C=C1 | > 100 µM (inactive) | 16.9 µM (inactive) | > 100 µM (inactive) | 12.6 µM (inactive) | 33.3 µM (inactive) | > 100 µM (inactive) | > 100 µM (inactive) | 37.9 µM (inactive) | – | > 100 µM (inactive) | > 100 µM (inactive) | > 100 µM (inactive) | 19.9 µM (inactive) | > 100 µM (inactive) | – | > 100 µM (inactive) | > 100 µM (inactive) | > 100 µM (inactive) | 28.2 µM (inactive) | > 100 µM (inactive)
14 | O=c1[nH]cc(OCC(F)(F)F)c(=O)[nH]1 | > 100 µM (inactive) | > 100 µM (inactive) | > 100 µM (inactive) | > 100 µM (inactive) | > 100 µM (inactive) | > 100 µM (inactive) | > 100 µM (inactive) | > 100 µM (inactive) | > 100 µM (inactive) | > 100 µM (inactive) | > 100 µM (inactive) | > 100 µM (inactive) | > 100 µM (inactive) | > 100 µM (inactive) | – | – | – | > 100 µM (inactive) | > 100 µM (inactive) | –
15 | O=C(Nc1nnn[nH]1)c1nc(O)cc(-c2ccccc2)n1 | > 100 µM (inactive) | > 100 µM (inactive) | > 100 µM (inactive) | > 100 µM (inactive) | > 100 µM (inactive) | > 100 µM (inactive) | > 100 µM (inactive) | > 100 µM (inactive) | > 100 µM (inactive) | > 100 µM (inactive) | > 100 µM (inactive) | > 100 µM (inactive) | > 100 µM (inactive) | > 100 µM (inactive) | – | – | – | > 100 µM (inactive) | > 100 µM (inactive) | –

Source: ChEMBL document CHEMBL1201862, “PubChem BioAssay data set” (2004)
